Measurements published in patent US20250275540A1, “USE OF PROTOPORPHYRINOGEN OXIDASE” (BEIJING DABEINONG BIOTECHNOLOGY CO., LTD., priority 2022, published 2025).

Test system: transgenic soybean plants
Experiment: Detection of the herbicide tolerance of the transgenic soybean plants
Type: in vivo
Parameters: key to damage levels rated at grade: grade 0 means that the growth status of plants is essentially consistent with those sprayed with the blank solvent (water); grade 1 means that the average of the damage levels of plants is less than 10%; grade 2 means that the average of the damage levels of plants is greater than 10%; grade 3 means that the average of the damage levels of plants is 100%
Conditions: for The grade of pesticide damage/plant: 0 / The grade of pesticide damage/plant: 1 / The grade of pesticide damage/plant: 2 / The grade of pesticide damage/plant: 3: 7 DAT
[1] = genotype Control vector, 50 g ai/ha
[2] = genotype Control vector, 100 g ai/ha
[3] = genotype PPO-AP-01, 100 g ai/ha
[4] = genotype PPO-EC-01, 100 g ai/ha

In the case of `CC(C)N(C)S(=O)(=O)NC(=O)c1cc(-n2c(=O)cc(C(F)(F)F)n(C)c2=O)c(F)cc1Cl` [saflufenacil, N′-[2-chloro-4-fluoro-5-(3-methyl-2,6-dioxo-4-(trifluoromethyl)-3,6-dihydro-1 (2H)-pyrimidine)benzoyl]-N-isopropyl-N-methylsulfamide], the “The grade of pesticide damage/plant: 0” value (genotype CK, 50 g ai/ha) is reported as 0 plant, the “The grade of pesticide damage/plant: 1” value (genotype CK, 50 g ai/ha) is reported as 0 plant and the “The grade of pesticide damage/plant: 2” value (genotype CK, 50 g ai/ha) is reported as 0 plant. The “The grade of pesticide damage/plant: 3” value (genotype CK, 50 g ai/ha) was 16 plant, the “The grade of pesticide damage/plant: 0” value (genotype CK, 100 g ai/ha) was 0 plant and the “The grade of pesticide damage/plant: 1” value (genotype CK, 100 g ai/ha) was 0 plant. The “The grade of pesticide damage/plant: 2” value (genotype CK, 100 g ai/ha) was 0 plant, the “The grade of pesticide damage/plant: 3” value (genotype CK, 100 g ai/ha) was 16 plant and the “The grade of pesticide damage/plant: 0” value [1] was 0 plant. For the same molecule, the “The grade of pesticide damage/plant: 1” value [1] was 0 plant, the “The grade of pesticide damage/plant: 2” value [1] was 0 plant and the “The grade of pesticide damage/plant: 3” value [1] was 16 plant. The “The grade of pesticide damage/plant: 0” value [2] was 0 plant, the “The grade of pesticide damage/plant: 1” value [2] was 0 plant and the “The grade of pesticide damage/plant: 2” value [2] was 0 plant. The “The grade of pesticide damage/plant: 3” value [2] was 16 plant, the “The grade of pesticide damage/plant: 0” value (genotype PPO-AP-01, 50 g ai/ha) was 0 plant and the “The grade of pesticide damage/plant: 1” value (genotype PPO-AP-01, 50 g ai/ha) was 0 plant. The “The grade of pesticide damage/plant: 2” value (genotype PPO-AP-01, 50 g ai/ha) was 8 plant, the “The grade of pesticide damage/plant: 3” value (genotype PPO-AP-01, 50 g ai/ha) was 8 plant and the “The grade of pesticide damage/plant: 0” value [3] was 0 plant. The “The grade of pesticide damage/plant: 1” value [3] was 0 plant, the “The grade of pesticide damage/plant: 2” value [3] was 0 plant and the “The grade of pesticide damage/plant: 3” value [3] was 16 plant. For the same molecule, the “tolerance to the herbicide (in words)” value (genotype PPO-AP-01, at different concentrations) was “basically no tolerance”, the “The grade of pesticide damage/plant: 0” value (genotype PPO-EC-01, 50 g ai/ha) was 9 plant and the “The grade of pesticide damage/plant: 1” value (genotype PPO-EC-01, 50 g ai/ha) was 7 plant. The “The grade of pesticide damage/plant: 2” value (genotype PPO-EC-01, 50 g ai/ha) was 0 plant, the “The grade of pesticide damage/plant: 3” value (genotype PPO-EC-01, 50 g ai/ha) was 0 plant and the “The grade of pesticide damage/plant: 0” value [4] was 8 plant. The “The grade of pesticide damage/plant: 1” value [4] was 3 plant, the “The grade of pesticide damage/plant: 2” value [4] was 5 plant and the “The grade of pesticide damage/plant: 3” value [4] was 0 plant. The “share of the plants that exhibited moderate- or poor-resistant tolerance” value (genotype PPO-EC-01, four-fold field concentration) was “about 32%”, the “share of the plants rated at grade 1” value (genotype PPO-EC-01, two-fold field concentration) was “about 44%” and the “The grade of pesticide damage/plant: 0” value (genotype PPOA-01, 50 g ai/ha) was 16 plant. The “The grade of pesticide damage/plant: 1” value (genotype PPOA-01, 50 g ai/ha) was 0 plant, the “The grade of pesticide damage/plant: 2” value (genotype PPOA-01, 50 g ai/ha) was 0 plant and the “The grade of pesticide damage/plant: 3” value (genotype PPOA-01, 50 g ai/ha) was 0 plant. For the same molecule, the “The grade of pesticide damage/plant: 0” value (genotype PPOA-01, 100 g ai/ha) was 16 plant, the “The grade of pesticide damage/plant: 1” value (genotype PPOA-01, 100 g ai/ha) was 0 plant and the “The grade of pesticide damage/plant: 2” value (genotype PPOA-01, 100 g ai/ha) was 0 plant. For the same molecule, the “The grade of pesticide damage/plant: 3” value (genotype PPOA-01, 100 g ai/ha) was 0 plant, the “The grade of pesticide damage/plant: 0” value (genotype PPOB-01, 50 g ai/ha) was 16 plant and the “The grade of pesticide damage/plant: 1” value (genotype PPOB-01, 50 g ai/ha) was 0 plant. For the same molecule, the “The grade of pesticide damage/plant: 2” value (genotype PPOB-01, 50 g ai/ha) was 0 plant, the “The grade of pesticide damage/plant: 3” value (genotype PPOB-01, 50 g ai/ha) was 0 plant and the “The grade of pesticide damage/plant: 0” value (genotype PPOB-01, 100 g ai/ha) was 16 plant. The “The grade of pesticide damage/plant: 1” value (genotype PPOB-01, 100 g ai/ha) was 0 plant, the “The grade of pesticide damage/plant: 2” value (genotype PPOB-01, 100 g ai/ha) was 0 plant and the “The grade of pesticide damage/plant: 3” value (genotype PPOB-01, 100 g ai/ha) was 0 plant. For the same molecule, the “The grade of pesticide damage/plant: 0” value (genotype PPOC-01, 50 g ai/ha) was 16 plant, the “The grade of pesticide damage/plant: 1” value (genotype PPOC-01, 50 g ai/ha) was 0 plant and the “The grade of pesticide damage/plant: 2” value (genotype PPOC-01, 50 g ai/ha) was 0 plant. The “The grade of pesticide damage/plant: 3” value (genotype PPOC-01, 50 g ai/ha) was 0 plant, the “The grade of pesticide damage/plant: 0” value (genotype PPOC-01, 100 g ai/ha) was 16 plant and the “The grade of pesticide damage/plant: 1” value (genotype PPOC-01, 100 g ai/ha) was 0 plant. For the same molecule, the “The grade of pesticide damage/plant: 2” value (genotype PPOC-01, 100 g ai/ha) was 0 plant, the “The grade of pesticide damage/plant: 3” value (genotype PPOC-01, 100 g ai/ha) was 0 plant and the “The grade of pesticide damage/plant: 0” value (genotype PPOD-01, 50 g ai/ha) was 16 plant. For the same molecule, the “The grade of pesticide damage/plant: 1” value (genotype PPOD-01, 50 g ai/ha) was 0 plant, the “The grade of pesticide damage/plant: 2” value (genotype PPOD-01, 50 g ai/ha) was 0 plant and the “The grade of pesticide damage/plant: 3” value (genotype PPOD-01, 50 g ai/ha) was 0 plant. The “The grade of pesticide damage/plant: 0” value (genotype PPOD-01, 100 g ai/ha) was 16 plant, the “The grade of pesticide damage/plant: 1” value (genotype PPOD-01, 100 g ai/ha) was 0 plant and the “The grade of pesticide damage/plant: 2” value (genotype PPOD-01, 100 g ai/ha) was 0 plant. The “The grade of pesticide damage/plant: 3” value (genotype PPOD-01, 100 g ai/ha) was 0 plant, the “The grade of pesticide damage/plant: 0” value (genotype PPOE-01, 50 g ai/ha) was 16 plant and the “The grade of pesticide damage/plant: 1” value (genotype PPOE-01, 50 g ai/ha) was 0 plant. The “The grade of pesticide damage/plant: 2” value (genotype PPOE-01, 50 g ai/ha) was 0 plant, the “The grade of pesticide damage/plant: 3” value (genotype PPOE-01, 50 g ai/ha) was 0 plant and the “The grade of pesticide damage/plant: 0” value (genotype PPOE-01, 100 g ai/ha) was 15 plant. For the same molecule, the “The grade of pesticide damage/plant: 1” value (genotype PPOE-01, 100 g ai/ha) was 1 plant, the “The grade of pesticide damage/plant: 2” value (genotype PPOE-01, 100 g ai/ha) was 0 plant and the “The grade of pesticide damage/plant: 3” value (genotype PPOE-01, 100 g ai/ha) was 0 plant. For the same molecule, the “The grade of pesticide damage/plant: 0” value (genotype PPOF-01, 50 g ai/ha) was 16 plant, the “The grade of pesticide damage/plant: 1” value (genotype PPOF-01, 50 g ai/ha) was 0 plant and the “The grade of pesticide damage/plant: 2” value (genotype PPOF-01, 50 g ai/ha) was 0 plant. The “The grade of pesticide damage/plant: 3” value (genotype PPOF-01, 50 g ai/ha) was 0 plant, the “The grade of pesticide damage/plant: 0” value (genotype PPOF-01, 100 g ai/ha) was 16 plant and the “The grade of pesticide damage/plant: 1” value (genotype PPOF-01, 100 g ai/ha) was 0 plant. For the same molecule, the “The grade of pesticide damage/plant: 2” value (genotype PPOF-01, 100 g ai/ha) was 0 plant, the “The grade of pesticide damage/plant: 3” value (genotype PPOF-01, 100 g ai/ha) was 0 plant and the “tolerance to the herbicide (in words)” value (genotypes PPOA-01 to PPOF-01, four-fold field concentration) was “high-resistant tolerance”. For the same molecule, the “damage levels rated at grade” value (genotypes PPOA-01 to PPOF-01, two-fold field concentration) was 0 and the “tolerance to the herbicide (in words)” value (genotypes PPOA-01 to PPOF-01 and PPO-EC-01, compared with the control vector and CK) was “different extents of tolerance”.
